Results reported in US8076487B2, “Pyridone derivative and herbicide” (Kumiai Chemical Industry Co., Ltd., priority 2006, dated 2011).

Assays:
Assay type in all cases: in vivo
[1] = test system: Japanese bulrush (Scirpus juncoides Roxb.); experiment: Test Example 1: herbicidal effect by soil application to paddy field; settings: paddy field soil application; active ingredient 1,000 g per 1 hectare; wettable powder added dropwise to water surface the day after sowing; examined on the 21st day after application
Outline: (§1)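 Plants were sown in flooded (3 cm) paddy soil and evaluated for herbicidal effect 21 days after soil application in a greenhouse.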

[2] = test system: early watergrass (Echinochloa oryzicola Vasing); experiment: as above; settings: paddy field soil application; active ingredient 1,000 g per 1 hectare; wettable powder added dropwise to water surface the day after sowing; examined on the 21st day after application
Outline: as §1

[3] = test system: heartshape false pickerelweed (Monochoria vaginalis (Burm.f.) C.Presl); experiment: as above; settings: paddy field soil application; active ingredient 1,000 g per 1 hectare; wettable powder added dropwise to water surface the day after sowing; examined on the 21st day after application
Outline: as §1

[4] = test system: barnyardgrass (Echinochloa crus-galli (L.) P. Beauv. var. crus-galli); experiment: Test Example 2: herbicidal effect by soil application to upland field; settings: soil surface spray, upland field soil, 1,000 g active ingredient per hectare, 21st day after application
Outline: (§2)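 Pre-emergence soil test: seeds sown in pots of field soil, then wettable-powder formulation sprayed on soil surface at 1,000 g active ingredient per hectare in 1,000 L water per hectare. Plants grown in greenhouse; herbicidal effect scored on a standard scale at day 21.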

[5] = test system: green foxtail (Setaria viridis (L.) P. Beauv.); experiment: as above; settings: soil surface spray, upland field soil, 1,000 g active ingredient per hectare, 21st day after application
Outline: as §2

[6] = test system: slender amaranth (Amaranthus viridis L.); experiment: as above; settings: soil surface spray, upland field soil, 1,000 g active ingredient per hectare, 21st day after application
Outline: as §2

[7] = test system: velvetleaf (Abutilon theophrasti medicus); experiment: as above; settings: soil surface spray, upland field soil, 1,000 g active ingredient per hectare, 21st day after application
Outline: as §2

[8] = test system: barnyardgrass (Echinochloa crus-galli (L.) P. Beauv. var. crus-galli); experiment: Test Example 3: herbicidal effect by application to upland field (foliage treatment); settings: foliage treatment, 1,000 g active ingredient per 1 hectare, 14th day after application, greenhouse
Outline: (§3)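 Field-soil pots sown with the four weed species and grown two weeks in a greenhouse, then sprayed over the whole plant with wettable powder in water at 1,000 g active ingredient/ha in 1,000 L/ha. Herbicidal effect scored against a rating standard 14 days after treatment.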

[9] = test system: green foxtail (Setaria viridis (L.) P. Beauv.); experiment: as above; settings: foliage treatment, 1,000 g active ingredient per 1 hectare, 14th day after application, greenhouse
Outline: as §3

[10] = test system: slender amaranth (Amaranthus viridis L.); experiment: as above; settings: foliage treatment, 1,000 g active ingredient per 1 hectare, 14th day after application, greenhouse
Outline: as §3

[11] = test system: velvetleaf (Abutilon theophrasti medicus); experiment: as above; settings: foliage treatment, 1,000 g active ingredient per 1 hectare, 14th day after application, greenhouse
Outline: as §3

Structure (SMILES) | herbicidal effect, Scirpus juncoides Roxb. [1] | herbicidal effect, Echinochloa oryzicola Vasing [2] | herbicidal effect, Monochoria vaginalis (Burm. f.) C. Presl [3] | herbicidal effect (index), Barnyardgrass [4] | herbicidal effect (index), Green Foxtail [5] | herbicidal effect (index), Slender Amaranth [6] | herbicidal effect (index), Velvetleaf [7] | herbicidal effect, Barnyardgrass [8] | herbicidal effect, Green Foxtail [9] | herbicidal effect, Slender Amaranth [10] | herbicidal effect, Velvetleaf [11]
CCCS(=O)(=O)Oc1c(C(=O)c2ccc(C(F)(F)F)n(CC3CCCO3)c2=O)cnn1C (stereo not drawn) [IV-140] | 5 (90% or more of herbicidal effect and crop phytotoxicity) | 5 (90% or more of herbicidal effect and crop phytotoxicity) | 5 (90% or more of herbicidal effect and crop phytotoxicity) | 5 (90% or more of herbicidal effect and crop phytotoxicity) | 5 (90% or more of herbicidal effect and crop phytotoxicity) | 5 (90% or more of herbicidal effect and crop phytotoxicity) | 5 (90% or more of herbicidal effect and crop phytotoxicity) | 5 (90% or more of herbicidal effect and crop phytotoxicity) | 3 (50 to less than 70% of herbicidal effect and crop phytotoxicity) | 5 (90% or more of herbicidal effect and crop phytotoxicity) | 5 (90% or more of herbicidal effect and crop phytotoxicity)
CCCNn1c(C(F)(F)F)ccc(C(=O)C2=C(O)CCCC2=O)c1=O [I-159] | 5 (90% or more of herbicidal effect and crop phytotoxicity) | 5 (90% or more of herbicidal effect and crop phytotoxicity) | 5 (90% or more of herbicidal effect and crop phytotoxicity) | 5 (90% or more of herbicidal effect and crop phytotoxicity) | 5 (90% or more of herbicidal effect and crop phytotoxicity) | 5 (90% or more of herbicidal effect and crop phytotoxicity) | 5 (90% or more of herbicidal effect and crop phytotoxicity) | 5 (90% or more of herbicidal effect and crop phytotoxicity) | 5 (90% or more of herbicidal effect and crop phytotoxicity) | 5 (90% or more of herbicidal effect and crop phytotoxicity) | 5 (90% or more of herbicidal effect and crop phytotoxicity)
Cn1ncc(C(=O)c2ccc(C(F)(F)F)n(C)c2=O)c1OCc1ccccc1 [IV-190] | 5 (90% or more of herbicidal effect and crop phytotoxicity) | 5 (90% or more of herbicidal effect and crop phytotoxicity) | 5 (90% or more of herbicidal effect and crop phytotoxicity) | 5 (90% or more of herbicidal effect and crop phytotoxicity) | 5 (90% or more of herbicidal effect and crop phytotoxicity) | 5 (90% or more of herbicidal effect and crop phytotoxicity) | 5 (90% or more of herbicidal effect and crop phytotoxicity) | 5 (90% or more of herbicidal effect and crop phytotoxicity) | 4 (70 to less than 90% of herbicidal effect and crop phytotoxicity) | 5 (90% or more of herbicidal effect and crop phytotoxicity) | 5 (90% or more of herbicidal effect and crop phytotoxicity)
